Patent US20210180023A1, “CARDIAC REPAIR BY REPROGRAMMING OF ADULT CARDIAC FIBROBLASTS INTO CARDIOMYOCYTES” (The Board of Regents of the University of Texas System, priority 2017, published 2021)

T1: Flag-epitope tag ZNF281 fusion protein (human, UniProt Q9Y2X9 1-895)
T1 construct: Expressed in transfected HEK293 cells and tested in cell lysate; also called FLAG-tagged ZNF281; Flag-tagged ZNF281
T1 sequence: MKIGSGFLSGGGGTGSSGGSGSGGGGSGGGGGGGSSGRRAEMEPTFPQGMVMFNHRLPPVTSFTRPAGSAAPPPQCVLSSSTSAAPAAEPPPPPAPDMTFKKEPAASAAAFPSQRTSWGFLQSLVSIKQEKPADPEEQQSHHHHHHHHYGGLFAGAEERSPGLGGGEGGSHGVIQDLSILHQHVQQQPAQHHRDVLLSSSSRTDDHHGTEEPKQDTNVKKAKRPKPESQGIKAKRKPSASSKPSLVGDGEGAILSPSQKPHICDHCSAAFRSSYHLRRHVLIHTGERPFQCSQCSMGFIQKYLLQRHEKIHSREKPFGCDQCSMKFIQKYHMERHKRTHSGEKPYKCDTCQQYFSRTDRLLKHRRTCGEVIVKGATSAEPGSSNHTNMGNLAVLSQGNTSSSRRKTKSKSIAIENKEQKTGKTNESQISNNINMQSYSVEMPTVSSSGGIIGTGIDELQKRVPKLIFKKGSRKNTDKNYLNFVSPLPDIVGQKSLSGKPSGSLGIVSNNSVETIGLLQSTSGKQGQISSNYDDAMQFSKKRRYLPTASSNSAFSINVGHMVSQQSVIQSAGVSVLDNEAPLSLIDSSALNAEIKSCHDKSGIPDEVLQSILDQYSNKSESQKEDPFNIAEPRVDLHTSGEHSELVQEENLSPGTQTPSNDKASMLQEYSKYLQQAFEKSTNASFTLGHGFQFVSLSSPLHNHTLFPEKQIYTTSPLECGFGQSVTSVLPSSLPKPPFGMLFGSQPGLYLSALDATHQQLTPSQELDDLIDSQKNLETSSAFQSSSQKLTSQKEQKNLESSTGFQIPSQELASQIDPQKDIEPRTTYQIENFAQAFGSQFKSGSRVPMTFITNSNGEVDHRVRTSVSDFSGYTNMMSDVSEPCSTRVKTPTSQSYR


Columns and labels:
[1] = target: GATA4 (expression plasmid, luciferase reporter assay) (human) (UniProt P43694); assay: cell-based or functional assay
Chain of GATA4 (expression plasmid, luciferase reporter assay) (human) (P43694 whole entry): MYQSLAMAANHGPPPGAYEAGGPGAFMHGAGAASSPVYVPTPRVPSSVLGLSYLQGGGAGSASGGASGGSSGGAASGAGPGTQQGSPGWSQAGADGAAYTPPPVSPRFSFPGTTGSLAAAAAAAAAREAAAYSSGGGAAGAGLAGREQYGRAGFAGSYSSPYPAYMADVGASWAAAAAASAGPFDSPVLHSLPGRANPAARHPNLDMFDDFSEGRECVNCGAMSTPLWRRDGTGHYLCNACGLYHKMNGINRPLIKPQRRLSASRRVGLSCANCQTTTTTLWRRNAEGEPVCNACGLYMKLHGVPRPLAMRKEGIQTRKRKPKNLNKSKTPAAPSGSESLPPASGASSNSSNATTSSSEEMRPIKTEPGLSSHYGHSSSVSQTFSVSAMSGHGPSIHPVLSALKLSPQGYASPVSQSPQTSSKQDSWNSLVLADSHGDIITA

fibroblasts = conditions: added to reprogramming cocktail (GMT); cited from earlier work
[2] = test system: 5F-reprogrammed adult αMHC-GFP transgenic TTFs; assay: Immunocytochemistry and flow cytometry of αMHC-GFP and cTnT in 5F-reprogrammed TTFs treated with anti-inflammatory drugs; type: cell-based, mouse; conditions: drug added to 5F, 7 days
Description: (§1) Retroviruses production, cellular reprogramming and treatment. For retroviruses production, Platinum E cells were seeded into culture dishes (1×10^5 cells/cm2) one day before transfection in DMEM supplemented with 10% FBS and 1% penicillin/streptomycin. Cells reached ˜80% confluency on the day of transfection. DNA plasmids were transfected into Platinum E cells using FuGENE 6 transfection reagent. Twenty-four hours after transfection, wild type or αMHC-GFP tail-tip fibroblasts were seeded into culture dishes or plates that were precoated with SureCoat (Cellutron) for one hour at a density of 6×10^4/cm^2. Forty-eight hours after transfection, polybrene was added to viral medium that was filtered through a 0.45-μm filter at a concentration of […]. The mixture replaced the growth medium in the cell culture plate with tail-tip fibroblasts. The viral infection was serially repeated twice. […]
Flow Cytometry. […] Cells were washed with Perm/Wash buffer, and then analyzed using FACS Caliber (BD Sciences) and FlowJo software. […]

5F-reprogrammed TTFs = assay: q-PCR of inflammatory and cardiac markers in 5F-reprogrammed TTFs treated with anti-inflammatory drugs; type: cell-based, mouse; conditions: drug 10 μM added to 5F, 7 days
Description: as §1, with “twice. Twenty-four hours after the second infection, the viral medium was replaced with induction medium, composed of DMEM/199 (4:1), 10% conditioned medium obtained from neonatal rat cardiomyocyte culture, 10% FBS, 5% horse serum, 1% penicillin/streptomycin, 1% nonessential amino acids, 1% essential amino acids, 1% B-27, 1% insulin-selenium-transferrin, 1% vitamin mixture, and 1% sodium pyruvate (Invitrogen).” for “twice.”
Quantitative mRNA measurement. […]

[3] = test system: adult tail-tip fibroblasts (TTFs) from αMHC-GFP mice; assay: Human retroviral ORF cDNA library screen for AGHMT-mediated cardiac reprogramming (high-throughput imaging of αMHC-GFP and cTnT); type: cell-based, mouse; conditions: for cTnT Z-score / αMHC Z-score: individual cDNA expressed together with 5F (AGHMT), 9 days, Z-score ≥2 activator, ≤−2 inhibitor; for αMHC Z-score: αMHC-GFP; for 5F-mediated cardiac reprogramming (αMHC-GFP, cTnT immunocytochemistry): virus added to 5F (AGHMT), 9 days post-infection
Text: Isolation of mouse tail-tip fibroblast. For isolation of adult mouse tail-tip fibroblasts, tails were cut from 8-12 weeks old adult wild-type or αMHC-GFP mouse and were minced into […] with razor blades after peeling off the superficial dermis. The minced tails were placed in fibroblast growth medium (DMEM supplemented with 10% FBS and 1% (vol/vol) penicillin/streptomycin). Tail-tip fibroblasts migrated out from the explants within 1 week and were passaged one time before use.
Construction of human retroviral ORFs library. Gateway-compatible Human ORFs pEntry vectors were purchased from Thermo Fisher Scientific. Gateway-compatible retroviral destination vector, pMXs-gw, was a gift from Shinya Yamanaka (Addgene plasmid #18656) (Takahashi, 2006). The inventors transferred each ORF individually into pMXs-gw by performing site-specific LR recombination using Gateway LR Clonase II Enzyme Mix kit (Thermo Fisher Scientific).
Retroviruses production, cellular reprogramming and treatment. For retroviruses production, Platinum E cells were seeded into culture dishes (1×10^5 cells/cm2) one day before transfection in DMEM supplemented with 10% FBS and 1% penicillin/streptomycin. Cells reached ˜80% confluency on the day of transfection. DNA plasmids were transfected into Platinum E cells using FuGENE 6 transfection reagent. Twenty-four hours after transfection, wild type or αMHC-GFP tail-tip fibroblasts were seeded into culture dishes or plates that were precoated with SureCoat (Cellutron) for one hour at a density of 6×10^4/cm^2. Forty-eight hours after transfection, polybrene was added to viral medium that was filtered through a 0.45-μm filter at a concentration of […]. The mixture replaced the growth medium in the cell culture plate with tail-tip fibroblasts. The viral infection was serially repeated twice. Twenty-four hours after the second infection, the viral medium was replaced with induction medium, composed of DMEM/199 (4:1), 10% conditioned medium obtained from neonatal rat cardiomyocyte culture, 10% FBS, 5% horse serum, 1% penicillin/streptomycin, 1% nonessential amino acids, 1% essential amino acids, 1% B-27, 1% insulin-selenium-transferrin, 1% vitamin mixture, and 1% sodium pyruvate (Invitrogen). Small molecule treatments were used throughout the reprogramming process […] (Sigma).
Immunocytochemistry. For immunocytochemistry, cells were fixed in 4% paraformaldehyde for 15 min and permeabilized with 0.1% Triton-X in room temperature. Cells were washed with PBS for three times followed by blocking with 10% goat serum for 1 hr. Cells then were incubated with mouse monoclonal anti-cardiac Troponin T (cTnT) antibody (Thermo Scientific) at 1:500 dilutions and rabbit anti-GFP antibody (Thermo Scientific) at 1:500 dilutions in 5% Goat serum for 1 hr. After washing with PBS three times, Cells then were incubated with donkey anti-mouse alexa fluor 647 (Invitrogen) at 1:500 and goat anti-rabbit Alexa fluor 488 at 1:500 (Invitrogen).
Identification of activators and inhibitors of cardiac reprogramming in adult fibroblasts. The inventors' previously optimized cardiac reprogramming protocol with five factors (AGHMT, also called 5F) was able to reprogram ˜3% efficiency of adult TTFs to iCMs as measured by activation of a cardiac-specific αMHC-GFP transgene and cardiac troponin T (cTnT) immunostaining (Zhou et al., 2015). To identify additional regulators of cardiac reprogramming, the inventors created a retroviral expression library consisting of 1,052 open reading frame (ORF) cDNAs representing 786 human transcription factor, cytokine, epigenetic regulator and nuclear receptor genes (Table 51). The inventors screened this expression library for activators and inhibitors of cardiac reprogramming by expressing individual cDNAs together with 5F in isolated TTFs from αMHC-GFP mice, as schematized in FIG. 1A. […]

[4] = target: T1, Flag-epitope tag ZNF281 fusion protein; assay: co-immunoprecipitation from transfected HEK293 cells (anti-FLAG IP, anti-Myc blot)
Description: FIGS. 6A-F. ZNF281 interacts with GATA4 to synergistically activate cardiac genes. (FIG. 6A) Co-immunoprecipitation assays were performed using HEK293 cells transfected with equal amounts of plasmid DNA encoding Myc-tagged GATA4, HAND2, MEF2c, or TBX5 and/or Flag-tagged ZNF281. IP, immunoprecipitation; IB, immunoblot. (FIG. 6B) Luciferase reporter assays were performed using HEK293 cells transfected with equal amounts of ZNF281 and/or GATA4 expression plasmids, as indicated, along with αMHC-luciferase reporter plasmid. (FIG. 6C) Heat maps showing ChIP-seq data for H3K27ac in adult mouse heart, and ZNF281 and GATA4 binding in reprogrammed TTFs at ±5 kB around the peak center. ChIP-seq experiments were performed using TTFs infected with 6F for 2 days. (FIG. 6D) ZNF281 binding motif enriched within ZNF281 binding peaks. (FIG. 6E) GATA4 binding motif enriched within GATA4 binding peaks. (FIG. 6F) Venn diagram showing the number of overlapping peaks between Heart H3K27ac, ZNF281 and GATA4. *P<0.05
Immunoprecipitation and Western Blot Analysis. Flag-epitope tag ZNF281 fusion protein were co-expressed with myc-epitope tag fusion GATA4, HAND2, MEF2C or TBX5 in HEK293 cells for 48 hours. […] The final elution and the input obtained before the immunoprecipitation was analyzed by SDS-PAGE western blot using a mouse monoclonal anti-Myc antibody (Novex) or mouse monoclonal anti-FLAG antibody (Sigma).

Row | Molecule | cTnT Z-score [3] | αMHC Z-score [3] | 5F-mediated cardiac reprogramming (αMHC-GFP, cTnT immunocytochemistry) [3] | also measured
1 | ZNF281 (expression plasmid, luciferase reporter assay) (from UniProt Q9Y2X9 1-895) | – | – | – | αMHC-Luciferase reporter activation [1]: 15 fold
2 | NC(=O)c1ccc(-c2nc(-c3ccc4c(c3)OCO4)c(-c3ccccn3)[nH]2)cc1 [SB431542] | – | – | – | cardiac reprogramming (fibroblasts): enhance cardiac reprogramming
3 | COc1ccc2cc(CCC(C)=O)ccc2c1 [nabumetone] | – | – | – | cardiac reprogramming efficiency [2]: greatly enhanced; expression of inflammatory markers (IL6, Ccl2, and Ptgs1) (5F-reprogrammed TTFs): decreased
4 | forkhead box protein A3 [FOXA3] | −3.1 | −4.3 | practically abolished | –
5 | C[C@H](NC(=O)Cc1cc(F)cc(F)c1)C(=O)N[C@H](C(=O)OC(C)(C)C)c1ccccc1 [DAPT] | – | – | – | cardiac reprogramming (fibroblasts): enhance cardiac reprogramming
6 | BMP2 | 0.5 | −3.2 | – | –
7 | Achaete-scute homolog 1 [ASCL1] | 3.9 | 0.0 | greatly enhanced reprogramming | –
8 | PHD finger protein 7 [PHF7] | 9.7 | 7.4 | enhanced reprogramming | –
9 | myc-epitope tag fusion HAND2 (other, not shown: small tags and cut ends, Expressed in transfected HEK293 cells; The tag's position is unknown; also called Myc-tagged HAND2; Heart- and neural crest derivatives-expressed protein 2) MSLVGGFPHHPVVHHEGYPFAAAAAAAAAAAASRCSHEENPYFHGWLIGHPEMSPPDYSMALSYSPEYASGAAGLDHSHYGGVPPGAGPPGLGGPRPVKRRGTANRKERRRTQSINSAFAELRECIPNVPADTKLSKIKTLRLATSYIAYLMDLLAKDDQNGEAEAFKAEIKKTDVKEEKRKKELNEILKSTVSSNDKKTKGRTGWPQHVWALELKQ | – | – | – | binding result [4]: no binding
10 | myc-epitope tag fusion TBX5 (other, not shown: small tags and cut ends, Expressed in transfected HEK293 cells; The tag's position is unknown; also called Myc-tagged TBX5; T-box transcription factor TBX5) MADADEGFGLAHTPLEPDAKDLPCDSKPESALGAPSKSPSSPQAAFTQQGMEGIKVFLHERELWLKFHEVGTEMIITKAGRRMFPSYKVKVTGLNPKTKYILLMDIVPADDHRYKFADNKWSVTGKAEPAMPGRLYVHPDSPATGAHWMRQLVSFQKLKLTNNHLDPFGHIILNSMHKYQPRLHIVKADENNGFGSKNTAFCTHVFPETAFIAVTSYQNHKITQLKIENNPFAKGFRGSDDMELHRMSRMQSKEYPVVPRSTVRQKVASNHSPFSSESRALSTSSNLGSQYQCENGVSGPSQDLLPPPNPYPLPQEHSQIYHCTKRKEEECSTTDHPYKKPYMETSPSEEDSFYRSSYPQQQGLGASYRTESAQRQACMYASSAPPSEPVPSLEDISCNTWPSMPSYSSCTVTTVQPMDRLPYQHFSAHFTSGPLVPRLAGMANHGSPQLGEGMFQHQTSVAHQPVVRQCGPQTGLQSPGTLQPPEFLYSHGVPRTLSPHQYHSVHGVGMVPEWSDNS | – | – | – | binding result [4]: no binding
